Reference: patent US20250235453A1, “TRIAZOLOPYRIDAZINE COMPOUNDS USEFUL AS RAC1 INHIBITORS” (Revere Pharmaceuticals, priority 2021, published 2025)

biological target: T1, Rac1 (Homo sapiens, UniProt P63000); test: Rac Activation AlphaScreen Assay (Rac1 AS); format: biochemical; conditions: Rac1 AS assay, dose leading to 50% disruption of complex; read-out: IC50
T1 construct: His (N)
Protocol: The IC50 values reported in Tables 1-6 were obtained from the Rae Activation AlphaScreen Assay (Rac1 AS) assay described in subsection 2 under the section entitled “In Vitro Assays”. “†” represents an IC50 of greater than 100 uM; “††” represents an IC50 of greater than 10 uM and less than 50 uM; and “†††” represents an IC50 of less than 10 uM. “POC” means percent of control. […] Lower POC values reflect greater inhibition. “NT” means not tested.
2. Rac Activation AlphaScreen Assay (Rac1 AS)
AlphaScreen® assays were performed in 96-well microplates in a final reaction volume of 60 μL. Recombinant His-Rac1, recombinant GST-PBD (PAK Binding Domain), donor and acceptor beads (PerkinElmer), and inhibitors were incubated in exchange buffer (20 mM Tris pH 7.5, 50 mM NaCl, 1 mM MgCl2, 1 mM EDTA, 500 nM GTPyS (guanosine 5′-[Y-thio]triphosphate)) at 37° C. Readings were performed on a Tecan M1000 pro microplate reader after 1 hour. Data was analyzed using the GraphPad Prism software (GraphPad Software, Inc.), and IC50 (dose leading to 50% disruption of complex) was calculated from the dose-response curves.

Compound	IC50 [µM]
O=C(Cc1ccc(Cl)cc1)Nc1ccc(-c2ccc3nnc(-c4ccncc4)n3n2)cc1 [Compound 7]	> 100
O=C(Cc1cccc(F)c1)Nc1ccc(-c2ccc3nnc(-c4ccncc4)n3n2)cc1 [Compound 8]	> 100
Cc1ccc(CC(=O)Nc2ccc(-c3ccc4nnc(-c5ccncc5)n4n3)cc2)cc1C [Compound 9]	10 to 50
O=C(Cc1cccc(Cl)c1)Nc1ccc(-c2ccc3nnc(-c4ccncc4)n3n2)cc1 [Compound 10]	< 10
Cc1cc(C)cc(CC(=O)Nc2ccc(-c3ccc4nnc(-c5ccncc5)n4n3)cc2)c1 [Compound 11]	10 to 50
O=C(Cc1ccc(F)cc1)Nc1ccc(-c2ccc3nnc(-c4ccncc4)n3n2)cc1 [Compound 12]	< 10
Cc1ccccc1CC(=O)Nc1ccc(-c2ccc3nnc(-c4ccncc4)n3n2)cc1 [Compound 13]	10 to 50
O=C(Cc1cccc2ccccc12)Nc1ccc(-c2ccc3nnc(-c4ccncc4)n3n2)cc1 [Compound 15]	< 10
O=C(Cc1ccc2ccccc2c1)Nc1ccc(-c2ccc3nnc(-c4ccncc4)n3n2)cc1 [Compound 16]	10 to 50
O=C(Cc1cccc([N+](=O)[O-])c1)Nc1ccc(-c2ccc3nnc(-c4ccncc4)n3n2)cc1 [Compound 17]	10 to 50
O=C(Cc1cccs1)Nc1ccc(-c2ccc3nnc(-c4cccnc4)n3n2)cc1 [Compound 18]	10 to 50
O=C(Cc1cccc2ccccc12)Nc1ccc(-c2ccc3nnc(-c4ccccn4)n3n2)cc1 [Compound 19]	< 10
O=C(Cc1ccc2ccccc2n1)Nc1ccc(-c2ccc3nnc(-c4ccccn4)n3n2)cc1 [Compound 20]	> 100
O=C(Cc1ccc(Cl)nc1)Nc1ccc(-c2ccc3nnc(-c4ccccn4)n3n2)cc1 [Compound 21]	10 to 50
O=C(Cc1cccnc1Cl)Nc1ccc(-c2ccc3nnc(-c4ccccn4)n3n2)cc1 [Compound 22]	< 10
O=C(Cc1cccc(F)c1)Nc1ccc(-c2ccc3nnc(-c4cccs4)n3n2)cc1 [Compound 24]	< 10

Compound	IC50 [µM]
COc1cccc(CC(=O)Nc2ccc(-c3ccc4nnc(-c5cccs5)n4n3)cc2)c1 [Compound 25]	10 to 50
O=C(Cc1ccc(F)cc1)Nc1ccc(-c2ccc3nnc(-c4cccs4)n3n2)cc1 [Compound 26]	< 10
O=C(Cc1ccc(F)cc1F)Nc1ccc(-c2ccc3nnc(-c4cccs4)n3n2)cc1 [Compound 27]	< 10
O=C(Cc1ccccc1Cl)Nc1ccc(-c2ccc3nnc(-c4cccs4)n3n2)cc1 [Compound 28]	< 10
O=C(Cc1ccccc1)Nc1ccc(-c2ccc3nnc(-c4ccccn4)n3n2)cc1 [Compound 30]	< 10
Cc1nnc2ccc(-c3ccc(NC(=O)Cc4ccco4)cc3)nn12 [Compound 31]	> 100
O=S(=O)(Cc1ccccc1)Nc1ccc(-c2ccc3nnc(-c4ccccn4)n3n2)cc1 [Compound 33]	< 10
O=C(Cc1ccccc1Cl)Nc1cccc(-c2ccc3nnc(-c4cccnc4)n3n2)c1 [Compound 44]	< 10
O=C(Cc1c[nH]c2ccccc12)Nc1cccc(-c2ccc3nnc(-c4cccnc4)n3n2)c1 [Compound 45]	< 10
COc1cccc(CC(=O)Nc2cccc(-c3ccc4nnc(-c5cccnc5)n4n3)c2)c1 [Compound 46]	< 10
O=C(Nc1cccc(-c2ccc3nnc(-c4cccnc4)n3n2)c1)c1ccc2ccccc2c1 [Compound 49]	10 to 50
O=C(Cc1cccs1)Nc1cccc(-c2ccc3nnc(-c4cccnc4)n3n2)c1 [Compound 51]	< 10
O=C(Cc1ccc(Cl)cc1)Nc1cccc(-c2ccc3nnc(-c4cccnc4)n3n2)c1 [Compound 52]	< 10
O=S(=O)(Cc1ccc(F)cc1F)Nc1cccc(-c2ccc3nnc(-c4cccnc4)n3n2)c1 [Compound 56]	< 10
O=S(=O)(Cc1ccc2ccccc2c1)Nc1cccc(-c2ccc3nnc(-c4cccnc4)n3n2)c1 [Compound 57]	< 10
CCc1ccc(CS(=O)(=O)Nc2cccc(-c3ccc4nnc(-c5cccnc5)n4n3)c2)s1 [Compound 59]	< 10
